Counter-ions that a name gives are not always drawn.
Legend:
Assay type in all cases: cell-based, human
[1] = tested on: Mz-ChA-1; assay: Combination assay with sorafenib (MTT), Mz-ChA-1;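 for increase of sorafenib cytotoxicity in combination: percent increase of sorafenib cell viability inhibition versus sorafenib alone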
Experimental: (§1) Suitable vehicle controls were also included.
(§2) The type of interaction (synergistic, additive, or antagonistic) among sorafenib and test substances or positive controls was evaluated by measuring the reversal ratio value (RR), combination index (CI), and isobolographic analysis (IB), as previously described.

[2] = tested on: Bx-PC3; assay: Combination assay with sorafenib (MTT), Bx-PC3;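 for increase of sorafenib cytotoxicity in combination: percent increase of sorafenib cell viability inhibition versus sorafenib alone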
Experimental: as §1, §2

[3] = tested on: HepG2; assay: Combination assay with sorafenib (MTT), HepG2; conditions: for increase of sorafenib cytotoxicity in combination: verapamil/MK571 1 µg/mL or sesquiterpenes 10 µg/mL;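 for increase of sorafenib cytotoxicity in combination: percent increase of sorafenib cell viability inhibition versus sorafenib alone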
Experimental: as §1, §2

[4] = tested on: phospho(Tyr705)-STAT3; assay: Western blotting of STAT3 phosphorylation in Bx-PC3 cells; conditions: for increase of STAT3 phosphorylation at tyrosine 705: substance alone, sorafenib and sesquiterpenes 10 μg/mL, verapamil/MK571 1 μg/mL, normalized to total STAT3; for reduction of phospho(Tyr705)-STAT3 with respect to sorafenib: substance in combination with sorafenib 10 μg/mL
Experimental: as §1
Confluent cells were seeded in 6-well plates (5 × 10^5 cells/well), treated as described above, then harvested by centrifugation and washed in PBS. After lysis with a suitable buffer, the Western blotting analysis was carried out, according to previously published methods. […] The levels of phospho(Tyr705)-STAT3 were normalized against total STAT3 ones.

[5] = tested on: Bx-PC3 cells; assay: Wound healing assay (cell migration); conditions: for increase of wound area: substance in combination with sorafenib 10 µg/mL, reference and time not stated
Experimental: To evaluate the effect of caryophyllane sesquiterpenes, both alone and in combination with sorafenib, on the cell migration rate, the wound healing assay was performed. Bx-PC3 cells were seeded in 24-well plate at a density of 2.5 × 10^5 cells/well. After 24 h, the wound was created by scratching the well bottom with a 100 μL pipette tip, then the cells were treated under the scheduled conditions and images were captured at 0, 4, and 72 h using a Cytation 1 Cell Imaging Multi-Mode Reader. […] Results were expressed as wound area percentage with respect to that of the same well at zero time. The positive controls were also included.

[6] = tested on: Mz-ChA-1; assay: MTT cytotoxicity assay, substances alone, Mz-ChA-1; conditions: Mz-ChA-1
Experimental: as §1
(§3) The effect of the treatments on cell viability was measured by the MTT assay as previously described. A higher than 30% reduction of cell viability was considered as a significant cytotoxic effect.

[7] = tested on: Bx-PC3; assay: MTT cytotoxicity assay, substances alone, Bx-PC3
Experimental: as §1, §3

[8] = tested on: noncancerous H69 cholangiocytes; assay: Combination assay with sorafenib (MTT), tolerability in H69; conditions: combination with 1 µg/mL and 10 µg/mL sorafenib, verapamil/MK571 1 µg/mL
Experimental: as §1, §2

[9] = tested on: HepG2; assay: MTT cytotoxicity assay, substances alone, HepG2; conditions: HepG2
Experimental: as §1, §3

[10] = tested on: noncancerous H69 cholangiocytes; assay: MTT cytotoxicity assay (tolerability), substances alone, H69
Experimental: as §1, §3

[11] = tested on: MRP2; assay: Immunofluorescence analysis in Bx-PC3 cells, MRP2; conditions: substance alone
Experimental: as §1
The analysis was performed according to previously published methods. Confluent cells were seeded in 24-well plates (2 × 10^4 cells/well), allowed to adhere overnight, then treated as described above. After treatment, cells were fixed in pure methanol and washed with 4% bovine serum albumin (BSA) and PBS + Tween 20 (PBS-T) for 1 h. […] The expression and localization of Pgp, MRP1, and MRP2 pumps into cells were analyzed by using a Cytation 1 Cell Imaging Multimode Reader (Biotech, USA).

## COc1ccc(CCN(C)CCCC(C#N)(c2ccc(OC)c(OC)c2)C(C)C)cc1OC (stereo not drawn) [Verapamil, verapamil hydrochloride, reference compound]
[1]
  reduction of sorafenib IC50 in the presence of the substance: 1.5 fold
[2]
  reduction of sorafenib IC50 in the presence of the substance: ~2 fold
[3]
  reduction of sorafenib IC50 in the presence of the substance: approximately 3 fold
[4]
  increase of STAT3 phosphorylation at tyrosine 705: 1.1 fold
  reduction of phospho(Tyr705)-STAT3 with respect to sorafenib: lower reduction
[5]
  increase of wound area: lowered the anti-migration effect of sorafenib

## CN(C)C(=O)CCSC(SCCC(=O)O)c1cccc(/C=C/c2ccc3ccc(Cl)cc3n2)c1 (stereo not drawn) [MK571, reference compound]
[6]; Homo sapiens, substance alone, 4 h exposure + 72 h recovery
  IC50: 94.6 µg/mL
[6]
  IC50 higher than that of sorafenib: 1.2 fold
[6]; 50 µg/mL
  inhibition of cell viability: approximately 15%
[6]; 250 µg/mL
  inhibition of cell viability: ~90%
[7]
  IC50 higher than that of sorafenib: 2.5 fold
[7]; 50 µg/mL
  inhibition of cell viability: ~33%
[7]; 250 µg/mL
  inhibition of cell viability: ~90%
[7]; Homo sapiens, BXPC-3, substance alone, 4 h exposure + 72 h recovery
  IC50: 78.5 µg/mL
[1]
  reduction of sorafenib IC50 in the presence of the substance: 1.7 fold
[1]; sorafenib 1 µg/mL, verapamil/MK571 1 µg/mL
  increase of sorafenib cytotoxicity in combination: 3%
[1]; sorafenib 10 µg/mL, verapamil/MK571 1 µg/mL or sesquiterpenes 10 µg/mL
  increase of sorafenib cytotoxicity in combination: 20%
[2]
  reduction of sorafenib IC50 in the presence of the substance: ~3.9 fold
[2]; sorafenib 1 µg/mL, verapamil/MK571 1 µg/mL or sesquiterpenes 10 µg/mL
  increase of sorafenib cytotoxicity in combination: ~10%
[2]; sorafenib 10 µg/mL, verapamil/MK571 1 µg/mL
  increase of sorafenib cytotoxicity in combination: ~47%
[8]
  reduction of cell viability with respect to sorafenib alone: ~15%
[9]
  IC50 higher than that of sorafenib: comparable
[9]; 50 µg/mL
  inhibition of cell viability: 50%
[10]; H69 vs Mz-ChA-1
  higher cytotoxicity in normal H69 cells than in cancerous Mz-ChA-1 cholangiocytes (IC50 comparison): ~2.9 fold
[10]; Homo sapiens, H69 noncancerous cholangiocytes, substance alone, 4 h exposure + 72 h recovery, read-out: IC50 (CL)
  CC50: 32.6 µg/mL
[3]
  reduction of sorafenib IC50 in the presence of the substance: ~6 fold
[3]; sorafenib 1 µg/mL
  increase of sorafenib cytotoxicity in combination: ~23%
[3]; sorafenib 10 µg/mL
  increase of sorafenib cytotoxicity in combination: ~40%
[4]
  increase of STAT3 phosphorylation at tyrosine 705: 1.5 fold
  reduction of phospho(Tyr705)-STAT3 with respect to sorafenib: 3.7 fold
[11]
  effect on MRP2 transporter expression (immunofluorescence): significantly lowered
[5]; substance alone, sesquiterpenes 10 µg/mL, verapamil/MK571 1 µg/mL
  wound area / cell migration after 72 h: almost complete closure of wound area
[5]
  increase of wound area: approximately 3.7 fold

From publication PMC9231089, “Sorafenib Chemosensitization by Caryophyllane Sesquiterpenes in Liver, Biliary, and Pancreatic Cancer Cells: The Role of STAT3/ABC Transporter Axis” (Pharmaceutics, 2022)
